Patent publication US8952157B2, “Apoptosis-inducing agents for the treatment of cancer and immune and autoimmune diseases” (AbbVie Inc., priority 2008, dated 2015)

Target: GST-Bcl-2 (Homo sapiens (Human), UniProt P10415)
Assay: Time Resolved-Fluorescence Resonance Energy Transfer (TR-FRET) Bcl-2 binding assay
Settings: GST-Bcl-2 1 nM, F-Bak peptide probe 100 nM, Tb-anti-GST antibody 1 nM; Ki by Wang's equation
How it was run: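 Ki values derived from TR-FRET displacement of F-Bak peptide from GST-Bcl-2, detected with Tb-labelled anti-GST antibody (ex 340, em 520/495 nm). Compound dilution series started at 50 μM (2× starting concentration); room-temperature incubation 3 hours.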

GST-Bcl-2, sequence (P10415 whole entry): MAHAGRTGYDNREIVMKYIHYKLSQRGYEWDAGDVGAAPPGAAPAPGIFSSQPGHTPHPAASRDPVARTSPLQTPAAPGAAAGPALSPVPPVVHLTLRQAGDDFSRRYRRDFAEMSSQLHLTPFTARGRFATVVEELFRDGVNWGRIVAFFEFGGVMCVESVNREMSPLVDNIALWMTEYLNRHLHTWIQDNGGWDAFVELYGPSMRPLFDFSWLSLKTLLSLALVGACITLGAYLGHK

| Structure (SMILES) | Ki [nM] |
| --- | --- |
| CN(C)CCCc1c[nH]c2ccc(Oc3cc(N4CCN(Cc5ccccc5-c5ccc(Cl)cc5)CC4)ccc3C(=O)NS(=O)(=O)c3ccc(NCC4CCOCC4)c([N+](=O)[O-])c3)cc12 [Example 106, 4-(4-((4′-chloro-1,1′-biphenyl-2-yl)methyl)piperazin-1-yl)-2-((3-(3-(dimethylamino)propyl)-1H-indol-5-yl)oxy)-N-((3-nitro-4-((tetrahydro-2H-pyran-4-ylmethyl)amino)phenyl)sulfonyl)benzamide] | 215 |
| CN(C)CCCNc1ccc(S(=O)(=O)NC(=O)c2ccc(N3CCN(CC4=C(c5ccc(Cl)cc5)CC(C)(C)CC4)CC3)cc2Oc2cccc(Cl)c2)cc1[N+](=O)[O-] [Example 142, 2-(3-chlorophenoxy)-4-(4-{[2-(4-chlorophenyl)-4,4-dimethylcyclohex-1-en-1-yl]methyl}piperazin-1-yl)-N-[(4-{[3-(dimethylamino)propyl]amino}-3-nitrophenyl)sulfonyl]benzamide] | 0.071 |
| CN(C)CCCc1c[nH]c2cccc(Oc3cc(N4CCN(CC5=C(c6ccc(Cl)cc6)CC(C)(C)CC5)CC4)ccc3C(=O)NS(=O)(=O)c3ccc(NCC4CCOCC4)c([N+](=O)[O-])c3)c12 [Example 339, 4-(4-{[2-(4-chlorophenyl)-4,4-dimethylcyclohex-1-en-1-yl]methyl}piperazin-1-yl)-2-({3-[3-(dimethylamino)propyl]-1H-indol-4-yl}oxy)-N-({3-nitro-4-[(tetrahydro-2H-pyran-4-ylmethyl)amino]phenyl}sulfonyl)benzamide] | 0.057 |
| CC1(C)CCC(CN2CCN(c3ccc(C(=O)NS(=O)(=O)c4ccc(NCCCN5CCNC(=O)C5)c([N+](=O)[O-])c4)c(Oc4ccccc4Cl)c3)CC2)=C(c2ccc(Cl)cc2)C1 [Example 254, 2-(2-chlorophenoxy)-4-(4-{[2-(4-chlorophenyl)-4,4-dimethylcyclohex-1-en-1-yl]methyl}piperazin-1-yl)-N-[(3-nitro-4-{[3-(3-oxopiperazin-1-yl)propyl]amino}phenyl)sulfonyl]benzamide] | 0.119 |
| CC1(C)CCC(CN2CCN(c3ccc(C(=O)NS(=O)(=O)c4ccc(NC[C@H]5CCCOC5)c([N+](=O)[O-])c4)c(Oc4cc5cc[nH]c5cc4F)c3)CC2)=C(c2ccc(Cl)cc2)C1 [Example 259, 4-(4-{[2-(4-chlorophenyl)-4,4-dimethylcyclohex-1-en-1-yl]methyl}piperazin-1-yl)-2-[(6-fluoro-1H-indol-5-yl)oxy]-N-[(3-nitro-4-{[(3R)-tetrahydro-2H-pyran-3-ylmethyl]amino}phenyl)sulfonyl]benzamide] | 0.165 |
| CN1CCN(Nc2ccc(S(=O)(=O)NC(=O)c3ccc(N4CCN(CC5=C(c6ccc(Cl)cc6)CC(C)(C)CC5)CC4)cc3Oc3cc4cc[nH]c4c(F)c3F)cc2[N+](=O)[O-])CC1 [Example 220, 4-(4-{[2-(4-chlorophenyl)-4,4-dimethylcyclohex-1-en-1-yl]methyl}piperazin-1-yl)-2-[(6,7-difluoro-1H-indol-5-yl)oxy]-N-({4-[(4-methylpiperazin-1-yl)amino]-3-nitrophenyl}sulfonyl)benzamide] | 0.127 |
| CN(C)CCOc1cccc(Oc2cc(N3CCN(Cc4ccccc4-c4ccc(Cl)cc4)CC3)ccc2C(=O)NS(=O)(=O)c2ccc(NCC3CCOCC3)c([N+](=O)[O-])c2)c1 [Example 39, 4-(4-((4′-chloro-1,1′-biphenyl-2-yl)methyl)piperazin-1-yl)-2-(3-(2-(dimethylamino)ethoxy)phenoxy)-N-((3-nitro-4-((tetrahydro-2H-pyran-4-ylmethyl)amino)phenyl)sulfonyl)benzamide] | 0.019 |
| CN(C)CCc1ccc(Oc2cc(N3CCN(Cc4ccccc4-c4ccc(Cl)cc4)CC3)ccc2C(=O)NS(=O)(=O)c2ccc(NCC3CCOCC3)c([N+](=O)[O-])c2)cc1 [Example 87, 4-(4-((4′-chloro-1,1′-biphenyl-2-yl)methyl)piperazin-1-yl)-2-(4-(2-(dimethylamino)ethyl)phenoxy)-N-((3-nitro-4-((tetrahydro-2H-pyran-4-ylmethyl)amino)phenyl)sulfonyl)benzamide] | 264 |
| CN1CCC(Nc2ccc(S(=O)(=O)NC(=O)c3ccc(N4CCN(CC5=C(c6ccc(Cl)cc6)CC(C)(C)CC5)CC4)cc3Oc3cccc(Br)c3)cc2[N+](=O)[O-])CC1 [Example 46, 2-(3-bromophenoxy)-4-(4-((2-(4-chlorophenyl)-4,4-dimethylcyclohex-1-en-1-yl)methyl)piperazin-1-yl)-N-((4-((1-methylpiperidin-4-yl)amino)-3-nitrophenyl)sulfonyl)benzamide] | 0.047 |
| CN1CCC(Nc2ccc(S(=O)(=O)NC(=O)c3ccc(N4CCN(CC5=C(c6ccc(Cl)cc6)CC(C)(C)CC5)CC4)cc3Oc3cccc(Cl)c3F)cc2[N+](=O)[O-])CC1 [Example 147, 2-(3-chloro-2-fluorophenoxy)-4-(4-{[2-(4-chlorophenyl)-4,4-dimethylcyclohex-1-en-1-yl]methyl}piperazin-1-yl)-N-({4-[(1-methylpiperidin-4-yl)amino]-3-nitrophenyl}sulfonyl)benzamide] | 0.127 |
| Cc1c[nH]c2cccc(Oc3cc(N4CCN(CC5=C(c6ccc(Cl)cc6)CC(C)(C)CC5)CC4)ccc3C(=O)NS(=O)(=O)c3ccc(NC4CCN(C)CC4)c([N+](=O)[O-])c3)c12 [Example 66, 4-(4-((2-(4-chlorophenyl)-4,4-dimethylcyclohex-1-en-1-yl)methyl)piperazin-1-yl)-2-((3-methyl-1H-indol-4-yl)oxy)-N-((4-((1-methylpiperidin-4-yl)amino)-3-nitrophenyl)sulfonyl)benzamide] | 0.592 |
| Cn1ccc2c(Oc3cc(N4CCN(Cc5ccccc5-c5ccc(Cl)cc5)CC4)ccc3C(=O)NS(=O)(=O)c3ccc(NCCCN4CCOCC4)c([N+](=O)[O-])c3)cccc21 [Example 68, 4-(4-((4′-chloro-1,1′-biphenyl-2-yl)methyl)piperazin-1-yl)-2-((1-methyl-1H-indol-4-yl)oxy)-N-((4-((3-morpholin-4-ylpropyl)amino)-3-nitrophenyl)sulfonyl)benzamide] | 5.93 |
| COCOc1cccc(Oc2cc(N3CCN(CC4=C(c5ccc(Cl)cc5)CC(C)(C)CC4)CC3)ccc2C(=O)NS(=O)(=O)c2ccc(NC3CCN(C)CC3)c([N+](=O)[O-])c2)c1C [Example 158, 4-(4-{[2-(4-chlorophenyl)-4,4-dimethylcyclohex-1-en-1-yl]methyl}piperazin-1-yl)-2-[3-(methoxymethoxy)-2-methylphenoxy]-N-({4-[(1-methylpiperidin-4-yl)amino]-3-nitrophenyl}sulfonyl)benzamide] | 0.619 |
| O=C(NS(=O)(=O)c1ccc(NCCCN2CCOCC2)c([N+](=O)[O-])c1)c1ccc(N2CCN(Cc3ccccc3-c3ccc(Cl)cc3)CC2)cc1Oc1ccc(-c2cccnc2)cc1 [Example 100, 4-(4-((4′-chloro-1,1′-biphenyl-2-yl)methyl)piperazin-1-yl)-N-((4-((3-morpholin-4-ylpropyl)amino)-3-nitrophenyl)sulfonyl)-2-(4-pyridin-3-ylphenoxy)benzamide] | 113 |
| CC(=O)Nc1cccc(Oc2cc(N3CCN(CC4=C(c5ccc(Cl)cc5)CC(C)(C)CC4)CC3)ccc2C(=O)NS(=O)(=O)c2ccc(NC3CCN(C4CCOCC4)CC3)c([N+](=O)[O-])c2)c1 [Example 225, 2-[3-(acetylamino)phenoxy]-4-(4-{[2-(4-chlorophenyl)-4,4-dimethylcyclohex-1-en-1-yl]methyl}piperazin-1-yl)-N-({3-nitro-4-[(1-tetrahydro-2H-pyran-4-ylpiperidin-4-yl)amino]phenyl}sulfonyl)benzamide] | 3.28 |
| CC1(C)CCC(CN2CCN(c3ccc(C(=O)NS(=O)(=O)c4ccc(NCC5CCOCC5)c([N+](=O)[O-])c4)c(Oc4cc(N)nc(N)c4)c3)CC2)=C(c2ccc(Cl)cc2)C1 [Example 380, 4-(4-{[2-(4-chlorophenyl)-4,4-dimethylcyclohex-1-en-1-yl]methyl}piperazin-1-yl)-2-[(2,6-diaminopyridin-4-yl)oxy]-N-({3-nitro-4-[(tetrahydro-2H-pyran-4-ylmethyl)amino]phenyl}sulfonyl)benzamide] | 8.27 |
| CN1CCC(Nc2ccc(S(=O)(=O)NC(=O)c3ccc(N4CCN(CC5=C(c6ccc(Cl)cc6)CC(C)(C)CC5)CC4)cc3Oc3cccc(Cl)c3)cc2S(=O)(=O)C(F)(F)F)CC1 [Example 131, 2-(3-chlorophenoxy)-4-(4-{[2-(4-chlorophenyl)-4,4-dimethylcyclohex-1-en-1-yl]methyl}piperazin-1-yl)-N-({4-[(1-methylpiperidin-4-yl)amino]-3-[(trifluoromethyl)sulfonyl]phenyl}sulfonyl)benzamide] | 0.066 |
| CC1(C)CCC(CN2CCN(c3ccc(C(=O)NS(=O)(=O)c4ccc(NC5CCN(C6CCOCC6)CC5)c([N+](=O)[O-])c4)c(Oc4cccc5[nH]c(C(F)(F)F)cc45)c3)CC2)=C(c2ccc(Cl)cc2)C1 [Example 215, 4-(4-{[2-(4-chlorophenyl)-4,4-dimethylcyclohex-1-en-1-yl]methyl}piperazin-1-yl)-N-({3-nitro-4-[(1-tetrahydro-2H-pyran-4-ylpiperidin-4-yl)amino]phenyl}sulfonyl)-2-{[2-(trifluoromethyl)-1H-indol-4-yl]oxy}benzamide] | 2.95 |
| CCN1CCC(Nc2ccc(S(=O)(=O)NC(=O)c3ccc(N4CCN(CC5=C(c6ccc(Cl)cc6)CC(C)(C)CC5)CC4)cc3Oc3ccccc3Cl)cc2[N+](=O)[O-])CC1 [Example 47, 2-(2-chlorophenoxy)-4-(4-((2-(4-chlorophenyl)-4,4-dimethylcyclohex-1-en-1-yl)methyl)piperazin-1-yl)-N-((4-((1-ethylpiperidin-4-yl)amino)-3-nitrophenyl)sulfonyl)benzamide] | 0.05 |
| CC1(C)CCC(CN2CCN(c3ccc(C(=O)NS(=O)(=O)c4ccc(NCC5CCOC5)c([N+](=O)[O-])c4)c(Oc4cc5cc[nH]c5cc4F)c3)CC2)=C(c2ccc(Cl)cc2)C1 (centres unmarked) [Example 332, 4-(4-{[2-(4-chlorophenyl)-4,4-dimethylcyclohex-1-en-1-yl]methyl}piperazin-1-yl)-2-[(6-fluoro-1H-indol-5-yl)oxy]-N-({3-nitro-4-[(tetrahydrofuran-3-ylmethyl)amino]phenyl}sulfonyl)benzamide] | 0.034 |
